Measurements reported in patent publication US8119801B2, “HIV inhibiting 2-(4-cyanophenyl)-6-hydroxylaminopyrimidines” (priority 2005, dated 2012).

Assays:
[1] = tested on: Strain A, mutation Y181C in HIV reverse transcriptase; assay: Antiviral spectrum cellular assay, strain A; type: cell-based; details: Human immunodeficiency virus 1, read-out: pEC50 against strain A (converted)
Experimental: (§1) Because of the increasing emergence of drug resistant HIV strains, the present compounds were tested for their potency against clinically isolated HIV strains harboring several mutations. These mutations are associated with resistance to reverse transcriptase inhibitors and result in viruses that show various degrees of phenotypic cross-resistance to the currently commercially available drugs such as for instance AZT and delavirdine.
(§2) The antiviral activity of the compound of the present invention is evaluated in the presence of wild type HIV and HIV mutants bearing mutations at the reverse transcriptase gene. The activity of the compounds is evaluated using a cellular assay and the residual activity is expressed in pEC50 values. The columns IIIB and A-G in the table list the pEC50 values against various strains IIIB, A-G.
Strain A contains mutation Y181C in HIV reverse transcriptase, […]

[2] = tested on: Strain IIIB, wild type HIV-LAI strain; assay: Antiviral spectrum cellular assay, strain IIIB; type: cell-based; details: Human immunodeficiency virus 1, IIIB, read-out: pEC50 against strain IIIB (converted)
Experimental: as §1, §2
Strain IIIB is wild type HIV-LAI strain;

[3] = tested on: Strain G, mutations L100I, K103N, E138G, V179I, Y181C, L214F, V276V/I and A327A/V in HIV reverse transcriptase; assay: Antiviral spectrum cellular assay, strain G; type: cell-based; details: for EC50: Human immunodeficiency virus 1, read-out: pEC50 against strain G (converted)
Experimental: as §1, §2

[4] = tested on: Strain C, mutation L100I in HIV reverse transcriptase; assay: Antiviral spectrum cellular assay, strain C; type: cell-based; details: Human immunodeficiency virus 1, read-out: pEC50 against strain C (converted)
Experimental: as §1, §2
Strain C contains mutation L100I in HIV reverse transcriptase, […]

[5] = tested on: Strain B, mutation K103N in HIV reverse transcriptase; assay: Antiviral spectrum cellular assay, strain B; type: cell-based; details: Human immunodeficiency virus 1, read-out: pEC50 against strain B (converted)
Experimental: as §1, §2
Strain B contains mutation K103N in HIV reverse transcriptase, […]

[6] = tested on: Strain E, mutations L100I and K103N in HIV reverse transcriptase; assay: Antiviral spectrum cellular assay, strain E; type: cell-based
Experimental: as §1, §2
Strain E contains mutations L100I and K103N in HIV reverse transcriptase, […]

[7] = tested on: Strain F, mutations K101E and K103N in HIV reverse transcriptase; assay: Antiviral spectrum cellular assay, strain F; type: cell-based
Experimental: as §1, §2
Strain F contains mutations K101E and K103N in HIV reverse transcriptase.

[8] = tested on: Strain D, mutation Y188L and S162K in HIV reverse transcriptase; assay: Antiviral spectrum cellular assay, strain D; type: cell-based; details: Human immunodeficiency virus 1, read-out: pEC50 against strain D (converted)
Experimental: as §1, §2
Strain D contains mutation Y188L and S162K in HIV reverse transcriptase, […]

[9] = compared to reference compound A

Cc1cc(C#N)cc(C)c1Oc1nc(Nc2ccc(C#N)cc2)nc(N)c1Br [Compound A, reference compound]
EC50 [1]: 10 nM
EC50 [2]: 2.82 nM
EC50 [3]: 5750 nM

Cc1cc(C#N)cc(C)c1Oc1nc(Nc2ccc(C#N)cc2)nc(NO)c1Br [Compound 1, 4-[[6-hydroxylamino-5-bromo-2-[(4-cyanophenyl)amino]-4-pyrimidinyl]oxy]-3,5-dimethylbenzonitrile]
EC50 [4]: 1.2 nM
EC50 [1]: 12 nM
EC50 [2]: 3.98 nM
melting point: 211 °C (dec.)
EC50 [5]: 2.34 nM
EC50 ([6]; Human immunodeficiency virus 1, read-out: pEC50 against strain E (converted)): 1.86 nM
activity against double mutant strain E compared to reference compound A [6, 9]: improved activity
EC50 ([7]; Human immunodeficiency virus 1, read-out: pEC50 against strain F (converted)): 3.63 nM
activity against double mutant strain F compared to reference compound A [7, 9]: improved activity
EC50 [3]: 479 nM
activity against multiple mutated strain G compared to reference compound A [3, 9]: improved activity
EC50 [8]: 3.02 nM
